Measured values: ChEMBL document CHEMBL1144137, “Limonoids from Swietenia macrophylla and S. aubrevilleana” (1999)

System: Spodoptera frugiperda
Assay: Antifeedant activity against final instar larvae of Spodoptera frugiperda assessed as antifeedant index at 1000 ppm
Assay type: functional

Compound: C/C=C(\C)C(=O)O[C@@H]1[C@H]2C(=O)[C@](C)([C@H]3CC[C@]4(C)[C@@H](CC(=O)O[C@H]4c4ccco4)[C@]34O[C@H]24)[C@@H]([C@@H](OC(C)=O)C(=O)OC)C1(C)C [swietemahonin F]
- Activity: 70.2%
